Values joined by “and” are separate entries in the source; they are usually repeats but may differ in a detail not shown here. Equal values may be shown once. Active and inactive are the calls of the source. Rule for the calls: active = viability on the fitted dose curve at most 10% of control; inactive = the rest.

The experiment concerns NCI-H211 tumor spheroids, viability percent test/control. Kind of experiment: Anticancer human tumor NCI-H211 cell line growth inhibition.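 For IC50: spheroids exposed to agents for seven days before readout.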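 For viability, T/C: spheroids exposed to agents for seven days before readout.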 The settings on record: spheroids with HUVEC and MSC; for viability, T/C: stronger effect = lower value. The text has this:
Multicellular complex tumor spheroid response to DNA repair inhibitors in combination with DNA-damaging drugs
This study explores the anticancer activities of DNA-damaging drugs and inhibitors of DNA damage repair, both as single agents and in combinations. Complex tumor spheroids comprised of malignant cells, endothelial cells and mesenchymal stem cells served as an in vitro model for human solid tumors. This model system incorporates physiologically relevant features and patient-derived or established malignant cell lines with clinically relevant genetic alterations from many tumor types. Twenty-six patient-derived or established malignant cell lines were evaluated representing sarcoma, melanoma, small cell lung cancer (SCLC), non-small cell lung cancer (NSCLC), as well as bladder, ovarian and pancreatic cancers. The concentration ranges selected for each drug and investigational agent were based upon clinically achievable concentrations if the clinical Cmax of the agent was known.
Compounds. The drugs and compounds olaparib (NSC753686), talazoparib (NSC767125), berzosertib (NSC777718), elimusertib (NSC800525), nedisertib (NSC802822), VX-984 (NSC792969), AZD-1390 (NSC803789), temozolomide (NSC362856), topotecan (NSC609699), trabectedin (NSC813783), staurosporine (NSC755774), and gemcitabine (NSC613327) were obtained from the National Cancer Institute (NCI) Developmental Therapeutics Program Chemical Repository. The FDA-approved anticancer drug set is available from the Developmental Therapeutics Program at https://dtp.cancer.gov/organization/dscb/obtaining/available_plates.htm. […] The stock solutions were prepared in dimethyl sulfoxide (DMSO, Sigma-Aldrich, St. Louis, MO, cat. D2650) at 400-fold the tested concentration and stored at -70 degrees C. Prior to their use, the stock solutions were diluted in fresh medium and the final DMSO concentration in the assay was 0.25% (v/v). All drugs and investigational agents were tested over a range starting from a high concentration at or near the clinical Cmax and decreasing in half-log increments. If the clinical Cmax for an agent had not been determined, the highest concentration tested was 10 microM.
Cell Lines. The patient-derived cancer cell (PDC) lines: 156681-154-R-J1-PDC, 283228-195-R-J1-PDC, 287954-098-R-J1-PDC, 292921-168-R-J2-PDC, 349418-098-R-PDC, 425362-245-T-J1-PDC, 556581-035-R-J1-PDC, and BL0293-F563-PDC were received from the NCI Patient-Derived Models Repository (PDMR, https://pdmr.cancer.gov). The established cell lines HS-SY-2 (RRID:CVCL_8719), MPNST, and SYO-1 (RRID:CVCL_7146) were obtained from the Sloan Kettering Institute. The alveolar soft parts sarcoma cell line ASPS-1 (RRID:CVCL_S738) was established at the NCI and grown from internal seed stocks. The following established cell lines were purchased from the American Type Culture Collection (ATCC, Manassas, VA): G-401 (ATCC, cat. CRL-1441, RRID:CVCL_0270), SW982 (ATCC, cat. HTB-93, RRID:CVCL_1734), VA-ES-BJ (ATCC, cat. CRL-2138, RRID:CVCL_1785), NCI-H719 (ATCC, cat. CRL-5837, RRID:CVCL_1582), NCI-H196 (ATCC, cat. CRL-5823, RRID:CVCL_1509), NCI-H841 (ATCC, cat. CRL-5845, RRID:CVCL_1595), NCI-H1618 (ATCC, cat. CRL-5879, RRID:CVCL_1480), NCI-H1876 (ATCC, cat. CRL-5902, RRID:CVCL_1503), DMS 114 (ATCC, cat. CRL-2066; RRID:CVCL_1174), NCI-H211 (ATCC, cat. CRL-5824; RRID:CVCL_1529), and SW 1271 (ATCC, cat. CRL-2177, RRID:CVCL_1716). The small cell lung cancer cell line COR-L88 was purchased from Sigma-Aldrich (cat. 92031917-1VL, RRID:CVCL_1141). The non-small cell lung cancer cell lines NCI-H226 (RRID:CVCL_1544) and NCI-H322M (RRID:CVCL_1557) were established at the NCI and grown from internal seed stocks. Pooled donor human umbilical vein endothelial cells (HUVEC, Lonza, cat. CC-2519) and human mesenchymal stem cells (hMSC, Lonza, cat. PT-2501) were purchased from Lonza (Walkersville, MD).
Cell Culture. All cells were maintained in an incubator at 37 degrees C and 5% CO2 with 95% humidity. […]

The mark [1] stands for this setting: compound alone, run of 12/16/2019.

As a reminder, the viability, T/C is the ratio of treated to control. Broadly, the IC50 is the midpoint of a concentration-inhibition curve. Consider `CC(C)n1c(=O)n(C)c2cnc3cc(F)c(-c4ccc(OCCCN5CCCCC5)nc4)cc3c21`, for which the viability, T/C (compound 0.0316 µM) was 91.8% and 79.6% and 91.9%; the viability, T/C (compound 0.1 µM) is 62.7% and 60.5% and 86.8%; the viability, T/C (compound 0.316 µM) is 77.7% and 54.9% and 93.9%; the viability, T/C (compound 1 µM) was 76.7% and 57.7% and 85.2%; the viability, T/C (compound 3.16 µM) is 66.6% and 43.2% and 68.5%; the viability, T/C (compound 10 µM) is 23.9% and 14.7% and 17.5%. Moreover, the half-maximal inhibitory concentration (IC50) (curve of compound) was 4950 nM and 1310 nM and 4790 nM.
Take `CC1COCCN1c1cc(-c2ccnn2C)c2ccnc(-c3ccn[nH]3)c2n1` (stereo not drawn): the viability, T/C (compound 0.1 µM) was 0.66% and 1.94% and 4.83%; the viability, T/C (compound 0.316 µM) was 0.63% and 0.89% and 0.78%; the viability, T/C (compound 1 µM) was 0.57% and 0.81% and 0.58%; the viability, T/C (compound 3.16 µM) is 0.43% and 0.84% and 0.58%; the viability, T/C (compound 10 µM) is 0.61% and 1.42% and 0.85%. Besides, the IC50 (curve of compound) is less than 31.6 nM.
As to `CC[C@@]1(O)C(=O)OCc2c1cc1n(c2=O)Cc2cc3c(CN(C)C)c(O)ccc3nc2-1`, the viability, T/C was 12.2% [middle of 10 runs] (compound 0.00949 µM), 1.13% [middle of 10 runs] (compound 0.03 µM), 1.05% [middle of 10 runs] (compound 0.0949 µM) and 1.08% [middle of 10 runs] (compound 0.3 µM). Moreover, the IC50 by setting is: (compound alone, run of 11/07/2019) 4.84 nM [middle of 4 runs]; under setting [1], 6.27 nM [middle of 5 runs].
In the case of `CNCc1ccc(-c2cc(-c3nc(-c4ccc(S(=O)(=O)C(C)C)cc4)cnc3N)on2)cc1`, the viability, T/C is 66.6% and 86.6% and 97.1% (compound 0.00949 µM); 44.6% and 56.7% and 86.2% (compound 0.03 µM); 9.22% and 5.33% and 14.5% (compound 0.0949 µM); 1.18% and 1.04% and 0.87% (compound 0.3 µM); 0.24% and 0.22% and 0.59% (compound 0.949 µM); 0.17% and 0.19% (2×) (compound 3 µM). Further, the IC50 (curve of compound) is 22.6 nM and 34.8 nM and 53.7 nM.
In the case of `COc1cc(C)[nH]c(=O)c1CN1CCc2c(Cl)cc(C(OC)C3COC3)c(Cl)c2C1=O` (stereo not drawn), the viability, T/C reads like this: (compound 0.0316 µM) 98.9% and 97.3% and 103%; (compound 0.1 µM) 92.9% and 105% and 99.4%; (compound 0.316 µM) 81.8% and 93.7% and 96.8%; (compound 1 µM) 92.6% and 78.5% and 88.5%; (compound 3.16 µM) 87.9% and 84.4% and 87.8%; (compound 10 µM) 83.7% and 89.1% and 85.7%. Also, under “curve of compound”, the IC50 is more than 10000 nM.
In the case of `COc1cc2c(cc1O)CCNC21CSC2c3c(OC(C)=O)c(C)c4c(c3C(COC1=O)N1C(O)C3Cc5cc(C)c(OC)c(O)c5C(C21)N3C)OCO4` (stereo not drawn), the viability, T/C runs as follows: (compound 94.9 pM) 21.3% [middle of 10 runs]; (compound 0.0003 µM) 0.79% [middle of 8 runs]; (compound 0.000949 µM) 0.7% [middle of 9 runs]; (compound 0.003 µM) 0.13% [middle of 6 runs]. For the same compound, the IC50 under setting [1] was 0.0665 nM and 0.0583 nM and 0.0631 nM.
For `COc1ccc([C@@H](O)c2cc(-c3ncnc4cc(N5CCOCC5)ccc34)c(F)cc2Cl)nn1`, the viability, T/C is 102% and 96.3% and 105% (compound 0.0316 µM); 100% and 102% and 109% (compound 0.1 µM); 95.9% and 93.1% and 104% (compound 0.316 µM); 90.3% and 101% (compound 1 µM); 74.8% and 85% and 96% (compound 3.16 µM); 11.4% and 40.7% and 40.8% (compound 10 µM). For the same compound, the outcome (compound 1 µM) was inactive. Besides, the IC50 (curve of compound) is 4870 nM and 7850 nM and 8300 nM.
In the case of `Cc1cc(C)c(CNC(=O)c2cc(-c3ccc(CN4CCOCC4)cc3)cc3c2cnn3C2CCCC2)c(=O)[nH]1`, the viability, T/C by setting is: (compound 0.0316 µM) 106% and 79.2% and 96.2%; (compound 0.1 µM) 102% (2×) and 89.3%; (compound 0.316 µM) 102% and 95.7% and 100%; (compound 1 µM) 96.7% and 87.9% and 102%; (compound 3.16 µM) 91.7% and 82.2% and 104%; (compound 10 µM) 52% and 33.5% and 63.2%. Also, the IC50 (curve of compound) was > 10000 nM and 6780 nM.
In the case of `Cc1sc2c(c1C)C(c1ccc(Cl)cc1)=NC(CC(=O)Nc1ccc(O)cc1)c1nnc(C)n1-2` (stereo not drawn), the viability, T/C is, setting by setting: (compound 0.00949 µM) 22.6% and 55.5% and 64.2%; (compound 0.03 µM) 3.79% and 7.14% and 8.47%; (compound 0.0949 µM) 1.01% and 1.07% and 0.73%; (compound 0.3 µM) 0.87% and 0.68% and 0.48%; (compound 0.949 µM) 0.92% and 0.62% and 0.4%; (compound 3 µM) 0.83% and 0.65% and 0.43%. For the same compound, the IC50 (curve of compound) is < 9.49 nM and 10.8 nM and 12.7 nM.
In the case of `Cn1ncnc1[C@H]1c2n[nH]c(=O)c3cc(F)cc(c23)N[C@@H]1c1ccc(F)cc1`, the viability, T/C (compound 0.00949 µM) was 1.22% and 3.94% and 1.23%; the viability, T/C (compound 0.03 µM) was 1.16% and 3.82% and 0.82%; the viability, T/C (compound 0.0949 µM) is 1.19% and 4.14% and 0.91%; the viability, T/C (compound 0.3 µM) was 1.37% and 3.79% and 0.88%; the viability, T/C (compound 0.949 µM) was 1.35% and 4.02% and 0.84%; the viability, T/C (compound 3 µM) is 1.37% and 3.65% and 1.07%. For the same compound, the IC50 (curve of compound) is less than 9.49 nM.
With `Cn1nnc2c(C(N)=O)ncn2c1=O`, the viability, T/C (compound 1 µM) is 98.3% [middle of 10 runs] and the viability, T/C (compound 10 µM) is 92.8% [middle of 10 runs].
On to `O=C(c1cc(Cc2n[nH]c(=O)c3ccccc23)ccc1F)N1CCN(C(=O)C2CC2)CC1`, for which the viability, T/C was 36% and 73% and 92.9% (compound 0.0949 µM); 30.1% and 42.2% and 63.5% (compound 0.3 µM); 14.9% and 5.83% and 9.79% (compound 0.949 µM); 9.02% and 1.22% and 0.8% (compound 3 µM); 8.37% and 1.02% and 0.69% (compound 9.49 µM); 7.89% and 0.93% and 0.73% (compound 30 µM). Also, the IC50 (curve of compound) was < 94.9 nM and 224 nM and 401 nM.
`[2H]c1nc(C)nc([2H])c1-c1cc(NC[C@@H](C)c2cccc3c(C(=O)NC)ccnc23)ncn1`: the viability, T/C is, setting by setting: (compound 0.0316 µM) 105% and 102% and 99.5%; (compound 0.1 µM) 103% and 92.2% and 90.7%; (compound 0.316 µM) 111% and 103% and 77.5%; (compound 1 µM) 102% and 99.2% and 90%; (compound 3.16 µM) 105% and 107% and 89.8%; (compound 10 µM) 103% (2×) and 97.1%. Also, under “curve of compound”, the IC50 is more than 10000 nM.

The values are drawn from PubChem BioAssay AID1845209 (Molecular Pharmacology Branch, DTP, NCI, 2023).
